Laboratory results published in patent US9873702B2, “Heterocyclic compounds as biogenic amine transport modulators” (Southern Research Institute, priority 2014, dated 2018).

Tests used:
[1] = target: dopamine transporter (DAT) (Rattus norvegicus, UniProt P23977); assay: Dopamine reuptake ([^3H]dopamine uptake) inhibition in rat brain synaptosomes; conditions: for IC50: DA Uptake EC50 (nM ± SD), rat caudate synaptosomes, 5 nM [^3H]dopamine, 15 min, 25° C., three experiments pooled; for Emax: read-out: DA Uptake Emax (% I ± SD)
Sequence of dopamine transporter (DAT) (P23977 whole entry): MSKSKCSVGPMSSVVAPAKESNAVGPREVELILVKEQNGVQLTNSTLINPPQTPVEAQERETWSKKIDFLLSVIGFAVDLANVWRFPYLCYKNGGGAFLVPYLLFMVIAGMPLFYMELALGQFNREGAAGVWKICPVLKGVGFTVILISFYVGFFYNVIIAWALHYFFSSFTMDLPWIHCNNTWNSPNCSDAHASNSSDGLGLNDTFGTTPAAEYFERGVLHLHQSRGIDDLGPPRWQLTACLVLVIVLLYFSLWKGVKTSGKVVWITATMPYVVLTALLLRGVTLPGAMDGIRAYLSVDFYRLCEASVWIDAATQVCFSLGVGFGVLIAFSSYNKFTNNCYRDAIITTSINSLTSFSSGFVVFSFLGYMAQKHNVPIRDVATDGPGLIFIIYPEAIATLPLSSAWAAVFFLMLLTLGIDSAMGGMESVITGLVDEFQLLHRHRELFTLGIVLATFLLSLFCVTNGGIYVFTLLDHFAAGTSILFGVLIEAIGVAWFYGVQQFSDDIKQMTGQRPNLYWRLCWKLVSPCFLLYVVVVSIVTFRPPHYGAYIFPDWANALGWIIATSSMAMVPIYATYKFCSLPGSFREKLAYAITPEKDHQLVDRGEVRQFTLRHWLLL

Row | Compound | melting point | IC50 [1] | Emax [1]
1 | c1ccc(C2CN(c3nc(-c4cnc5nccn5c4)nc4ccccc34)Cc3ccccc32)cc1 (stereo not drawn) [compound 143, 2-(Imidazo[1,2-A]Pyrimidin-6-yl)-4-(4-Phenyl-3,4-Dihydroisoquinolin-2(1H)-yl)Quinazoline] | 104 to 106 °C | 502 ± 84 nM | 73 ± 3%
2 | O=C(Nc1nc(-c2ccc3nccn3c2)nc2ccccc12)C(c1ccccc1)c1ccccc1 [compound 144, N-(2-(Imidazo[1,2-A]Pyridin-6-yl)Quinazolin-4-yl)-2,2-Diphenylacetamide] | 218 to 220 °C | 160 ± 28 nM | 61 ± 2%
3 | c1ccc(C(CNc2nc(-c3ccc4scnc4c3)nc3ccccc23)c2ccccc2)cc1 [compound 145, 2-(Benzo[D]Thiazol-5-yl)-N-(2,2-Diphenylethyl)Quinazolin-4-amine] | 224 to 226 °C | 533 ± 89 nM | 67 ± 2%
4 | CC(C)(C)OC(=O)N[C@H](CNc1nc(-c2ccc3nccn3c2)nc2ccccc12)c1ccccc1 [compound 146, (S)-Tert-Butyl (2-((2-(Imidazo[1,2-A]Pyridin-6-yl)Quinazolin-4-yl)Amino)-1-Phenylethyl)Carbamate] | 252 to 254 °C | 414 ± 44 nM | 65 ± 1%
5 | c1ccc(C(c2ccccc2)N2CC(Nc3nc(-c4ccc5nccn5c4)nc4ccccc34)C2)cc1 [compound 148, N-(1-Benzhydrylazetidin-3-yl)-2-(Imidazo[1,2-A]Pyridin-6-yl)Quinazolin-4-Amine] | 67 to 69 °C | 91 ± 21 nM | 81 ± 3%
6 | CC(=O)N[C@H](CNc1nc(-c2ccc3nccn3c2)nc2ccccc12)c1ccccc1 [compound 149, (S)—N-(2-((2-(Imidazo[1,2-A]Pyridin-6-yl)Quinazolin-4-yl)Amino)-1-Phenylethyl)Acetamide] | 99 to 101 °C | 3720 ± 608 nM | 80 ± 4%
7 | COc1ccc(C(CNc2nc(-c3ccc4nccn4c3)nc3ccccc23)C2(O)CCCCC2)cc1 (stereo not drawn) [compound 153, 1-(2-((2-(Imidazo[1,2-A]Pyridin-6-yl)Quinazolin-4-yl)Amino)-1-(4-Methoxyphenyl)ethyl)Cyclohexanol] | 247 to 249 °C | 41 ± 8 nM | 70 ± 2%
8 | CS(=O)(=O)n1ccc2cc(-c3nc(NCC(c4ccccc4)c4ccccc4)c4ccccc4n3)ccc21 [compound 154, N-(2,2-Diphenylethyl)-2-(1-(Methylsulfonyl)-1H-Indol-5-yl)Quinazolin-4-Amine] | 144 to 146 °C | 56 ± 13 nM | 73 ± 3%
9 | c1cncc(C(CNc2nc(-c3ccc4nccn4c3)nc3ccccc23)c2ccc[nH]2)c1 (stereo not drawn) [compound 155, 2-(Imidazo[1,2-A]Pyridin-6-yl)-N-(2-(pyridin-3-yl)-2-(1H-Pyrrol-2-yl)Ethyl)Quinazolin-4-Amine] | 121 to 124 °C | 175 ± 65 nM | 77 ± 6%
10 | Cc1cc2nccn2cc1-c1nc(NCC(c2cccnc2)c2ccc[nH]2)c2ccccc2n1 (stereo not drawn) [compound 156, 2-(7-Methylimidazo[1,2-A]Pyridin-6-yl)-N-(2-(Pyridin-3-yl)-2-(1H-Pyrrol-2-yl)Ethyl)Quinazolin-4-Amine] | 121 to 125 °C | 14 ± 3 nM | 68 ± 2%
11 | Cc1cc2nccn2cc1-c1nc(NCC(c2ccncc2)c2ccncc2)c2ccccc2n1 [compound 157, N-(2,2-Di(Pyridin-4-yl)Ethyl)-2-(7-Methylimidazo[1,2-A]Pyridin-6-yl)Quinazolin-4-Amine] | 170 to 175 °C | 15 ± 3 nM | 74 ± 2%
12 | c1ccc2c(NCC(c3ccncc3)c3ccncc3)nc(-c3ccc4nccn4c3)nc2c1 [compound 158, N-(2,2-Di(Pyridin-4-yl)Ethyl)-2-(Imidazo[1,2-A]Pyridin-6-yl)Quinazolin-4-Amine] | 192 to 196 °C | 66 ± 10 nM | 68 ± 2%
13 | Cc1cc2nccn2cc1-c1nc(NCCc2ccccc2)c2ccccc2n1 [compound 160, 2-(7-Methylimidazo[1,2-A]Pyridin-6-yl)-N-Phenethylquinazolin-4-Amine] | 192 to 196 °C | 11 ± 1 nM | 69 ± 1%

The remaining lines, values ahead:

Row | melting point | IC50 [1] | Emax [1] | Compound
14 | 246 to 247 °C | 168 ± 22 nM | 51 ± 1% | c1ccc(CCNc2nc(-c3ccc4nccn4c3)nc3ccccc23)cc1 [compound 161, 2-(Imidazo[1,2-A]Pyridin-6-yl)-N-Phenethylquinazolin-4-Amine]
15 | 196 to 198 °C | 2.2 ± 0.4 nM | 62 ± 2% | Cc1cc2nccn2cc1-c1nc(NC[C@H](c2ccccc2)n2cccc2)c2ccccc2n1 [compound 162, (S)-2-(7-Methylimidazo[1,2-A]Pyridin-6-yl)-N-(2-Phenyl-2-(1H-Pyrrol-1-yl)Ethyl)Quinazolin-4-Amine]
16 | 166 to 168 °C | 3.7 ± 1.5 nM | 87 ± 6% | c1ccc(C(CNc2nc(N3CCc4[nH]ccc4C3)nc3ccccc23)c2ccccc2)cc1 [compound 163, 2-(6,7-Dihydro-1H-Pyrrolo[3,2-C]Pyridin-5(4H)-yl)-N-(2,2-Diphenylethyl)Quinazolin-4-Amine]
17 | 107 to 109 °C | 6.4 ± 1.6 nM | 76 ± 3% | CC(CNc1nc(-c2ccc3nccn3c2)nc2ccccc12)(c1ccccc1)c1ccccc1 [compound 164, N-(2,2-Diphenylpropyl)-2-(Imidazo[1,2-A]Pyridin-6-yl)Quinazolin-4-Amine]
18 | 203 to 204 °C | 14 ± 2 nM | 78 ± 2% | c1ccc(CC(Nc2nc(-c3ccc4nccn4c3)nc3ccccc23)c2ccccc2)cc1 (stereo not drawn) [compound 165, N-(1,2-Diphenylethyl)-2-(Imidazo[1,2-A]pyridin-6-yl)Quinazolin-4-Amine]
19 | 190 to 192 °C | 42 ± 7 nM | 68 ± 2% | c1ccc(CCC(Nc2nc(-c3ccc4nccn4c3)nc3ccccc23)c2ccccc2)cc1 (stereo not drawn) [compound 166, N-(1,3-Diphenylpropyl)-2-(Imidazo[1,2-A]Pyridin-6-yl)Quinazolin-4-Amine]
20 | 119 to 120 °C | 9.4 ± 2.3 nM | 76 ± 3% | Cc1cc2nccn2cc1-c1nc(NC(CCc2ccccc2)c2ccccc2)c2ccccc2n1 (stereo not drawn) [compound 167, N-(1,3-Diphenylpropyl)-2-(7-Methylimidazo[1,2-A]Pyridin-6-yl)Quinazolin-4-Amine]
21 | 195 to 196 °C | 24 ± 5 nM | 75 ± 2% | CC(C)C(CNc1nc(-c2ccc3nccn3c2)nc2ccccc12)c1ccccc1 (stereo not drawn) [compound 168, 2-(Imidazo[1,2-A]Pyridin-6-yl)-N-(3-Methyl-2-Phenylbutyl)Quinazolin-4-Amine]
22 | 115 to 118 °C | 1.8 ± 0.4 nM | 64 ± 2% | Cc1cc2nccn2cc1-c1nc(NCC(c2ccccc2)C(C)C)c2ccccc2n1 (stereo not drawn) [compound 169, N-(3-Methyl-2-Phenylbutyl)-2-(7-Methylimidazo[1,2-A]Pyridin-6-yl)Quinazolin-4-Amine]
23 | 221 to 223 °C | 78 ± 14 nM | 72 ± 2% | CCN(CC)C(=O)[C@]1(c2ccccc2)C[C@@H]1CNc1nc(-c2ccc3nccn3c2)nc2ccccc12 [compound 170, (1R,2S)—N,N-Diethyl-2-(((2-(Imidazo[1,2-A]Pyridin-6-yl)Quinazolin-4-yl)Amino)Methyl)-1-Phenylcyclopropanecarboxamide]
24 | 225 to 228 °C | 16 ± 7 nM | 73 ± 5% | CCN(CC)C(=O)[C@]1(c2ccccc2)C[C@@H]1CNc1nc(-c2cn3ccnc3cc2C)nc2ccccc12 [compound 171, (1R,2S)—N,N-Diethyl-2-(((2-(7-Methylimidazo[1,2-A]pyridin-6-yl)Quinazolin-4-yl)Amino)Methyl)-1-Phenylcyclopropanecarboxamide]
25 | 87 to 89 °C | 5 ± 1.1 nM | 76 ± 2% | Cc1cc2nccn2cc1-c1nc(NC(Cc2ccccc2)c2ccccc2)c2ccccc2n1 (stereo not drawn) [compound 172, N-(1,2-Diphenylethyl)-2-(7-Methylimidazo[1,2-A]Pyridin-6-yl)Quinazolin-4-Amine]
26 | 201 to 202 °C | 140 ± 30 nM | 80 ± 3% | c1ccc2c(NCC(c3ccncc3)c3ccncc3)nc(-c3ccc4[nH]ccc4c3)nc2c1 [compound 173, N-(2,2-Di(pyridin-4-yl)Ethyl)-2-(1H-Indol-5-yl)Quinazolin-4-Amine]
27 | 224 to 226 °C | 31 ± 10 nM | 88 ± 4% | c1ccc2c(NCC(c3ccncc3)c3ccncc3)nc(N3CCc4[nH]ccc4C3)nc2c1 [compound 174, N-(2,2-Di(pyridin-4-yl)Ethyl)-2-(6,7-Dihydro-1H-Pyrrolo[3,2-C]Pyridin-5(4H)-yl)Quinazolin-4-Amine]
28 | 286 to 288 °C | 106 ± 19 nM | 68 ± 2% | c1ccc(OC(CNc2nc(-c3ccc4nccn4c3)nc3ccccc23)c2ccccc2)cc1 (stereo not drawn) [compound 175, 2-(Imidazo[1,2-A]Pyridin-6-yl)-N-(2-Phenoxy-2-Phenylethyl)Quinazolin-4-Amine]
29 | 243 to 246 °C | 2.3 ± 0.5 nM | 75 ± 3% | Cc1cc2nccn2cc1-c1nc(NCC(Oc2ccccc2)c2ccccc2)c2ccccc2n1 (stereo not drawn) [compound 177, 2-(7-Methylimidazo[1,2-A]Pyridin-6-yl)-N-(2-Phenoxy-2-Phenylethyl)Quinazolin-4-Amine]
30 | 275 to 277 °C | 5 ± 1.1 nM | 76 ± 3% | Cc1cc2nccn2cc1-c1nc(NCC(C)(c2ccccc2)c2ccccc2)c2ccccc2n1 [compound 178, N-(2,2-Diphenylpropyl)-2-(7-Methylimidazo[1,2-A]Pyridin-6-yl)Quinazolin-4-Amine]
31 | 236 to 238 °C | 3 ± 1 nM | 80 ± 4% | Cc1cc2nccn2cc1-c1nc(NCC(c2ccccc2)C2CC2)c2ccccc2n1 (stereo not drawn) [compound 179, N-(2-Cyclopropyl-2-Phenylethyl)-2-(7-Methylimidazo[1,2-A]Pyridin-6-yl)Quinazolin-4-Amine]
